Measured values taken from US20250099420A1, “SMALL MOLECULE MODULATORS OF GPR139 COMPLEX” (University of Florida Research Foundation, Incorporated, priority 2022, published 2025).
Like-named read-outs stand apart in the source and are kept apart here.

Key:
GPR139 = molecular target: T1, GPR139 (Homo sapiens, UniProt Q6DWJ6); assay: GPR139 Agonist titration / agonist counterscreen assay (calcium detection, HEK-GPR139 cells); assay type: cell-based; design: expressed in transfected cells; host or cells: HEK Aequorin cells, Maxcyte transient transfection; details: GPR139 Agonist Activity; for EC50: read-out: EC50; for Averaged Max % Response (±St. Dev.): activity relative to known control
T1 sequence (Q6DWJ6 1-353): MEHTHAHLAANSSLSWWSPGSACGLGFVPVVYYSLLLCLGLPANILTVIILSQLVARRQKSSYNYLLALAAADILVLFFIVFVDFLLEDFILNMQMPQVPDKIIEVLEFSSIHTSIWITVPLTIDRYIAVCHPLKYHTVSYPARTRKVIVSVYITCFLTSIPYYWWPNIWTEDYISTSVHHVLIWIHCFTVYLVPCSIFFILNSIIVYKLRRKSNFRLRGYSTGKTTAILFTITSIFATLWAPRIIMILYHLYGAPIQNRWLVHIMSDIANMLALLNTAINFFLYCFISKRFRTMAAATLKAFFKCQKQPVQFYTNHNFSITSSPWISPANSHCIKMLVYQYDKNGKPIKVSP
Method: GPR activity was assessed using a calcium detection assay. […] Negative control samples were treated with DMSO. […] Intracellular calcium was measured using Calcium 5.

parental HEK cells = assay: HEK parental Agonist Counterscreen Assay (non-transfected cells); assay type: cell-based; details: for Averaged Max % Response (±St. Dev.): activity relative to known control
Excerpt: The high control for the agonist counterscreen was Forskolin not acetylcholine.

[1] = HEK Agonist Activity section of Table 4 (parental HEK counterscreen)
[2] = values printed in E-notation without unit
[3] = Homo sapiens, HEK293, HEK Agonist Activity section of Table 4 (parental HEK counterscreen)

Row | SMILES | Efficiency Ligand (GPR139) | Hill Slope (GPR139) | Lipophilic Efficiency (logD) (GPR139) | Lipophilic Efficiency (logP) (GPR139) | EC50 (GPR139; HEK-GPR139 cells) | Averaged Max % Response (±St. Dev.) (GPR139) | Lipophilic Efficiency (logD) (parental HEK cells; HEK Agonist Activity section) | Lipophilic Efficiency (logP) (parental HEK cells; HEK Agonist Activity section) | EC50 (parental HEK cells; [1]) | Averaged Max % Response (±St. Dev.) (parental HEK cells; HEK Agonist Activity section) | Lipophilic Efficiency (logD) (GPR139; based on logD) | Lipophilic Efficiency (logP) (GPR139; based on logP) | Hill Slope (GPR139; fitted dose-response curve) | Efficiency Ligand (GPR139; ligand efficiency) | EC50 (GPR139; [2]) | EC50 (parental HEK cells; [3]) | Lipophilic Efficiency (logD) (parental HEK cells; HEK Agonist Activity) | Lipophilic Efficiency (logP) (parental HEK cells; HEK Agonist Activity) | Averaged Max % Response (±St. Dev.) (parental HEK cells; HEK Agonist Activity) | EC50 (parental HEK cells; Homo sapiens, HEK293, HEK Agonist Activity, parental non-transfected HEK cells)
1 | COc1ccc2cc(CCNC(=O)/C=C\c3ccc4c(c3)OCO4)c(=O)[nH]c2c1 [SR-01000124392] | 0.28 | 0.49 | 3.17 | 3.17 | 2000 nM | 80.01 ± 6.26% | 2.31 | 2.31 | > 14100 nM | 5.97 ± 7.64% | – | – | – | – | – | – | – | – | – | –
2 | COc1cc(C(=O)NCCn2ccc3ccccc32)cc(OC)c1OC [SR-01000124399] | – | – | – | – | – | 147.35 ± 21.79% | 2.15 | 2.15 | – | −5.54 ± 8.42% | 4.50 | 4.50 | 0.70 | 0.39 | 62.9 nM | > 14100 nM | – | – | – | –
3 | O=C(NCCc1ccc(Cl)cc1)c1nnc(Cc2ccc(F)cc2)o1 [SR-01000125346] | 0.34 | 1.86 | 2.95 | 2.95 | 840 nM | 91.83 ± 43.39% | 1.73 | 1.73 | – | 18.06 ± 8.45% | – | – | – | – | – | > 14100 nM | – | – | – | –
4 | O=C(CN1CCN(Cc2ccccc2Cl)C1=O)NCc1ccccc1Cl [SR-01000125458] | – | – | – | – | – | 119.40 ± 41.91% | – | – | – | – | 4.54 | 4.54 | 0.73 | 0.40 | 35.8 nM | – | 1.94 | 1.94 | −1.02 ± 2.16% | > 14100 nM
5 | O=C(CN1CCN(Cc2ccccc2Cl)C1=O)NC1CCCCCC1 [SR-01000125460] | – | – | – | – | – | 95.59 ± 27.48% | 2.02 | 2.02 | > 14100 nM | −2.02 ± 12.81% | 4.03 | 4.03 | 1.03 | 0.38 | 141 nM | – | – | – | – | –
6 | O=C(CN1CCN(Cc2ccccc2Cl)C1=O)NC1CCCCCCC1 [SR-01000125462] | – | – | – | – | – | 92.90 ± 12.57% | 1.58 | 1.58 | > 14100 nM | 6.02 ± 12.03% | 3.53 | 3.53 | 1.38 | 0.37 | 159 nM | – | – | – | – | –
7 | Cc1ccc(CCNC(=O)CN2CCN(Cc3ccccc3Cl)C2=O)cc1 [SR-01000125464] | – | – | – | – | – | 83.25 ± 20.00% | 1.74 | 1.74 | – | 5.57 ± 17.96% | 3.74 | 3.74 | 0.73 | 0.35 | 143 nM | > 14100 nM | – | – | – | –
8 | O=C(CN1CCN(Cc2ccccc2F)C1=O)NCCc1ccc(Cl)cc1 [SR-01000125584] | – | – | – | – | – | 103.06 ± 30.95% | 2.11 | 2.11 | – | 0.37 ± 17.31% | 4.59 | 4.59 | 0.81 | 0.38 | 47.1 nM | > 14100 nM | – | – | – | –
9 | O=C(CN1CCN(Cc2ccc(F)cc2Cl)C1=O)NCc1ccccc1Cl [SR-01000125622] | – | – | – | – | – | 99.14 ± 16.79% | 1.80 | 1.80 | – | −10.20 ± 10.64% | 3.63 | 3.63 | 0.99 | 0.35 | 208 nM | > 14100 nM | – | – | – | –
10 | Cc1ccc(CN2CCN(CC(=O)NCCc3ccc(Cl)cc3)C2=O)c(Cl)c1 [SR-01000125626] | 0.30 | 0.73 | 2.72 | 2.72 | – | 79.66 ± 15.90% | 1.51 | 1.51 | – | −27.02 ± 6.51% | – | – | – | – | – | > 14100 nM | – | – | – | –
11 | CC1CCCC(NC(=O)CN2CCN(Cc3ccc(F)cc3Cl)C2=O)C1C (stereo not drawn) [SR-01000125648] | 0.33 | 0.84 | 3.13 | 3.13 | 490 nM | 98.80 ± 20.98% | 1.67 | 1.67 | – | 8.17 ± 5.14% | – | – | – | – | – | > 14100 nM | – | – | – | –
12 | O=C(C1CC1)N1CCc2cc(S(=O)(=O)NCC3COc4ccccc4O3)ccc21 (stereo not drawn) [SR-01000126429] | 0.29 | 1.58 | 3.90 | 3.90 | 1000 nM | 78.64 ± 16.53% | 2.75 | 2.75 | – | 25.18 ± 6.22% | – | – | – | – | – | > 14100 nM | – | – | – | –
13 | CN(C)C(CNC(=O)Nc1ccc(Cl)c(Cl)c1)c1cccnc1 (stereo not drawn) [SR-01000127953] | – | – | – | – | – | 96.92 ± 13.57% | 2.35 | 1.96 | – | 10.89 ± 5.56% | 4.13 | 3.73 | 0.56 | 0.40 | 236 nM | > 14100 nM | – | – | – | –
14 | Cc1ccccc1-c1nc(C[S+]([O-])CC(=O)NC(C)CCc2ccccc2)c(C)o1 (stereo not drawn) [SR-01000129545] | 0.30 | 0.47 | 2.69 | 2.68 | 365 nM | 92.13 ± 1.72% | 1.11 | 1.09 | > 14100 nM | 32.45 ± 12.40% | – | – | – | – | – | – | – | – | – | –
15 | CC(NC(=O)c1ccc2c(c1)N(Cc1ccccc1)C(=O)C[S+]2[O-])c1ccccc1 (stereo not drawn) [SR-01000129845] | – | – | – | – | – | 98.04 ± 26.06% | 1.95 | 1.95 | > 14100 nM | 8.19 ± 5.50% | 3.96 | 3.96 | 1.01 | 0.32 | 138 nM | – | – | – | – | –
16 | CC(CCc1ccccc1)NC(=O)c1ccc2c(c1)C(Cc1ccccc1)C(=O)C[S+]2[O-] (stereo not drawn) [SR-01000129880] | – | – | – | – | – | 114.68 ± 22.09% | 1.22 | 1.21 | – | 0.02 ± 5.29% | 3.62 | 3.61 | 0.44 | 0.32 | 56.1 nM | > 14100 nM | – | – | – | –
